Measurements from patent US7074789B2, “Kinase inhibitors” (Amgen Inc., priority 1999, dated 2006).

Columns and labels:
Assay type in all cases: biochemical
Lck = target: T1, Lck (Homo sapiens, UniProt P06239); assay: Kinase inhibition assay (33P transfer), Lck; settings: Table 3, class symbols; read-out: Lck-1
T1 construct: Kinases are expressed as either kinase domains or full length constructs; made in house
How it was run: (§1)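 Each kinase, expressed as a GST- or polyHis-tagged domain or full-length protein, phosphorylated plate-attached poly(Glu,Tyr) 4:1 or poly(Arg,Ser) 3:1 using 33P-ATP. Bound radioactivity was measured by scintillation after a 0.5% phosphoric acid wash.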

Zap-70 = target: T2, Zap-70 (Homo sapiens, UniProt P43403); assay: Kinase inhibition assay (33P transfer), Zap-70; settings: Table 3, class symbols; read-out: Zap-1
T2 construct: Kinases are expressed as either kinase domains or full length constructs; made in house
T2 sequence (P43403 1-619): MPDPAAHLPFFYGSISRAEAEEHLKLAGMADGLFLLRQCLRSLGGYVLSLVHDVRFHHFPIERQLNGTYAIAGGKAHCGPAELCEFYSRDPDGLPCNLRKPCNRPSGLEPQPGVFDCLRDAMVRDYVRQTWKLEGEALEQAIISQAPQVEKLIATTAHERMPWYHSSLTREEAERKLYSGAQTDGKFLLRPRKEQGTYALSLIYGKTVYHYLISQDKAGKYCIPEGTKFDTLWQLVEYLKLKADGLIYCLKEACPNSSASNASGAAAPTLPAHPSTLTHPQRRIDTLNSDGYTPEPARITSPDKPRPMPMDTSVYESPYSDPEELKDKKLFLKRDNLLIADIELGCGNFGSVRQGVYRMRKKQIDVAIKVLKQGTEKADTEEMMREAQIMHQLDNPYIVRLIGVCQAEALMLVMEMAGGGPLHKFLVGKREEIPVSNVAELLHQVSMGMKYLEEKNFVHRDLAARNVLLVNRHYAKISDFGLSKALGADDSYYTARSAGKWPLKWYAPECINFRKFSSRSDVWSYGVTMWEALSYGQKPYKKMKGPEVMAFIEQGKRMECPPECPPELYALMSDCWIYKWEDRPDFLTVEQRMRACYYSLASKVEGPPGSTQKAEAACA
How it was run: as §1

Itk = target: T3, Itk (Homo sapiens, UniProt Q08881); assay: Kinase inhibition assay (33P transfer), Itk; settings: Table 3, class symbols; read-out: Itk-1
T3 construct: Kinases are expressed as either kinase domains or full length constructs; made in house
T3 sequence (Q08881 1-620): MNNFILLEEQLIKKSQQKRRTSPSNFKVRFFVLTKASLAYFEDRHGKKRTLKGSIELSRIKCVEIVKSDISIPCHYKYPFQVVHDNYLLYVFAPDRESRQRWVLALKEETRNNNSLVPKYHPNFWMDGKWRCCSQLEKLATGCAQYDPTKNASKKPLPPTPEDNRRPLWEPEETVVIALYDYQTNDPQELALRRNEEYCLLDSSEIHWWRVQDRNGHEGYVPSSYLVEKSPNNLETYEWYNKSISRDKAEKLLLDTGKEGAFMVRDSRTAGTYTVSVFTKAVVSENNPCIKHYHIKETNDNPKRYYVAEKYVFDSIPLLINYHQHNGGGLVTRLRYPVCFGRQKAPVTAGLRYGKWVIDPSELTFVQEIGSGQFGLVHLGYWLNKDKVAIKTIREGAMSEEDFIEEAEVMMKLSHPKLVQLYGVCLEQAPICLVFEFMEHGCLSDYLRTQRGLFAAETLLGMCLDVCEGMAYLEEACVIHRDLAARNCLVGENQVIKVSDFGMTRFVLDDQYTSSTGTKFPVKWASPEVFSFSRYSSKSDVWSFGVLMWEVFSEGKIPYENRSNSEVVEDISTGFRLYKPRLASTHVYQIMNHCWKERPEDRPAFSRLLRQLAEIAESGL
How it was run: (§2)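 Read-out: scintillation counts of 33P moved from ATP onto synthetic peptide polymer coated on the well surface, after washing with 0.5% phosphoric acid. Enzymes were tagged (GST or polyHistidine) and came from bacterial or insect-cell expression. IC50 marks 50% loss of incorporated label.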

EGFR = target: T4, EGFR (Homo sapiens, UniProt P00533); assay: Kinase inhibition assay (33P transfer), EGFR; settings: Table 2, class symbols A-E; read-out: EGFR-1
T4 construct: Kinases are expressed as either kinase domains or full length constructs; made in house
T4 sequence (P00533 25-1210, species assumed): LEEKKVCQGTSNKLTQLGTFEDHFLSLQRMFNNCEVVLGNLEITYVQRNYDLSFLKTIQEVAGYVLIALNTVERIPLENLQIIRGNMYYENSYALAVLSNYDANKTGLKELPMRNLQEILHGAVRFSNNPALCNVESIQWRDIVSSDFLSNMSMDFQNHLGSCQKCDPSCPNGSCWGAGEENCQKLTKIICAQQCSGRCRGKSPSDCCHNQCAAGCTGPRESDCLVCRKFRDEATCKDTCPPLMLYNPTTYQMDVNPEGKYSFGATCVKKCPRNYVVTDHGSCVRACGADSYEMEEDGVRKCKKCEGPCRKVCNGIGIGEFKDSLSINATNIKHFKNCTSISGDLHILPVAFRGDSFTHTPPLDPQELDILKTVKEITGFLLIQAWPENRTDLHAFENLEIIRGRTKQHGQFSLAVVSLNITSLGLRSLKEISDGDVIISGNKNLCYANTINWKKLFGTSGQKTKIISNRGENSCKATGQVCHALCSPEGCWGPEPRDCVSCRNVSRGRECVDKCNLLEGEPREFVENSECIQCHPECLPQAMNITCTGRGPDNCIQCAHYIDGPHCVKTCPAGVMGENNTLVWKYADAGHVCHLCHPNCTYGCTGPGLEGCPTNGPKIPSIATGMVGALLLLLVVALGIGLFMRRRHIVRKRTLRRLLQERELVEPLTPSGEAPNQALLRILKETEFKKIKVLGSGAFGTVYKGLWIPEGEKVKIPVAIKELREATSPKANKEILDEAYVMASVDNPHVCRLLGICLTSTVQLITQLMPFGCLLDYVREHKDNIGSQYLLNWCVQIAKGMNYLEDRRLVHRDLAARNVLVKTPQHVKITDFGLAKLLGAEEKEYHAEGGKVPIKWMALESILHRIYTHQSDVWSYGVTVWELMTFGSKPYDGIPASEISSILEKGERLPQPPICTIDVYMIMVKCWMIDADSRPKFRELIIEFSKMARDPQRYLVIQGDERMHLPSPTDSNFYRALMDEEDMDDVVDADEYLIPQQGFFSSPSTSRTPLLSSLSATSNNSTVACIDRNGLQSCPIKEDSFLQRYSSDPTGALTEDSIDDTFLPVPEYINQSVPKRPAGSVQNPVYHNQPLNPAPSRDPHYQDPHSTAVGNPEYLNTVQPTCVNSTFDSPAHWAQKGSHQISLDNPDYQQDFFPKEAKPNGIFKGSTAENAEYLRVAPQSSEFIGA
How it was run: as §2

ErbB2 = target: T5, ErbB2 (Homo sapiens, UniProt P04626); assay: Kinase inhibition assay (33P transfer), ErbB2; settings: read-out: ErbB2-2
T5 construct: Kinases are expressed as either kinase domains or full length constructs; made in house
How it was run: as §2

Kdr = target: T6, Kdr (Homo sapiens, UniProt P35968); assay: Kinase inhibition assay (33P transfer), Kdr; settings: Table 3, class symbols; read-out: KDR-1
T6 construct: Kinases are expressed as either kinase domains or full length constructs; made in house
How it was run: as §1

c-Met = target: T7, c-Met (Homo sapiens, UniProt P08581); assay: Kinase inhibition assay (33P transfer), c-Met; settings: Table 2, class symbols A-E; read-out: Met-1
T7 construct: Kinases are expressed as either kinase domains or full length constructs; made in house
T7 sequence (P08581 25-1390): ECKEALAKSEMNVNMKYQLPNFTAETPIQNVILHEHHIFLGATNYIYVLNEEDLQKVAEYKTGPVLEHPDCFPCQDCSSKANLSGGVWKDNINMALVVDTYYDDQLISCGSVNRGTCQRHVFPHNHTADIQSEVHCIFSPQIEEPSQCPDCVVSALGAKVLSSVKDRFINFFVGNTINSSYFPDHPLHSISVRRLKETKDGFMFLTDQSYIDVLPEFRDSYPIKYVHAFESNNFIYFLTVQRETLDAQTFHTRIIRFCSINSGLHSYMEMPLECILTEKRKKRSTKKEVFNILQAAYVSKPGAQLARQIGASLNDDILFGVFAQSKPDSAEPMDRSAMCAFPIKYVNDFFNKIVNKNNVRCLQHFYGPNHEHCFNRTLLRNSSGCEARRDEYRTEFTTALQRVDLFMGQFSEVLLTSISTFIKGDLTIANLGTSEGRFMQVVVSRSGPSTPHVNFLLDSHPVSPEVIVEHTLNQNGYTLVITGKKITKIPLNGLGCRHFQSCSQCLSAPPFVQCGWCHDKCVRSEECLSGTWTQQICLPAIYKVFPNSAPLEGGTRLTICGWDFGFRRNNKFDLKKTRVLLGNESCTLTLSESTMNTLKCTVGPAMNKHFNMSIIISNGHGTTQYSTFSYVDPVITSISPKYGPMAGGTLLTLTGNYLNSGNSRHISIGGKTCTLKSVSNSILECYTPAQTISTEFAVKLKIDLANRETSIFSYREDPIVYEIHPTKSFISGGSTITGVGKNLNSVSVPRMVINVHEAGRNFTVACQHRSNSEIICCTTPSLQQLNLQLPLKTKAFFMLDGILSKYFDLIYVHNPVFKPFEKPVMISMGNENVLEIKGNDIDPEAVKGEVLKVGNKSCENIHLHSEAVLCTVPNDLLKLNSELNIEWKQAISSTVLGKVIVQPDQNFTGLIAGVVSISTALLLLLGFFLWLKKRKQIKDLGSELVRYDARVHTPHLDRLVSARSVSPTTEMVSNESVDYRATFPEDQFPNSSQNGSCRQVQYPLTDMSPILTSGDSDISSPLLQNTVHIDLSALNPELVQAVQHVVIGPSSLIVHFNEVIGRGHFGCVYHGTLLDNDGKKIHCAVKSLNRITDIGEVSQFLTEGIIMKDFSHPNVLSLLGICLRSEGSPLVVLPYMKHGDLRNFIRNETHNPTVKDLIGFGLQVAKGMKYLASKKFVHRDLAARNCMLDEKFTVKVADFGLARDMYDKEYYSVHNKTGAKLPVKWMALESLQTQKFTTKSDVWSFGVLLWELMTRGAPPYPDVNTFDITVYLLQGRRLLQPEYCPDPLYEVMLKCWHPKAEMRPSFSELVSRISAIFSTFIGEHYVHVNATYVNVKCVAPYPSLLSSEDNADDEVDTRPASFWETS
How it was run: as §2

AKT = target: T8, AKT (Homo sapiens, UniProt Q9Y243); assay: Kinase inhibition assay (33P transfer), AKT; settings: Table 2, class symbols A-E; read-out: AKT3-1
T8 construct: Kinases are expressed as either kinase domains or full length constructs; made in house
T8 sequence (Q9Y243 whole entry, the tested form may be a part): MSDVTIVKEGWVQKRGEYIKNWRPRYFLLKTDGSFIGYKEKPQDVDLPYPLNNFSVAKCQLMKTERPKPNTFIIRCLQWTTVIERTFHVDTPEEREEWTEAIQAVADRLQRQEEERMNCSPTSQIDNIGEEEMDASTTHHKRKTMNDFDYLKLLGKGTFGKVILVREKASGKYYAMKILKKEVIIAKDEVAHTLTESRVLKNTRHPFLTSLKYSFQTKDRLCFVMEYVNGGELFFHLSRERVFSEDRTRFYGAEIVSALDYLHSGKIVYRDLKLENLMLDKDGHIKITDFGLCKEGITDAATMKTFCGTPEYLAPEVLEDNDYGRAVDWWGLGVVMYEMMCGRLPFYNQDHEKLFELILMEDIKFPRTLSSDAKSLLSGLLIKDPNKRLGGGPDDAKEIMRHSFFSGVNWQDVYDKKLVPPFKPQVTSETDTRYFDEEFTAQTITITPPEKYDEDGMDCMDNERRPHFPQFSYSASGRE
How it was run: as §1

IGFR-1 = target: T9, IGFR-1 (Homo sapiens, UniProt P08069); assay: Kinase inhibition assay (33P transfer), IGFR-1; settings: Table 2, class symbols A-E
T9 construct: Kinases are expressed as either kinase domains or full length constructs; made in house

PDGFRB = target: T10, PDGFRB (Homo sapiens, UniProt P09619); assay: Kinase inhibition assay (33P transfer), PDGFRB; settings: read-out: PDGFRB-1
T10 construct: Kinases are expressed as either kinase domains or full length constructs; made in house
T10 sequence (P09619 33-1106, species assumed): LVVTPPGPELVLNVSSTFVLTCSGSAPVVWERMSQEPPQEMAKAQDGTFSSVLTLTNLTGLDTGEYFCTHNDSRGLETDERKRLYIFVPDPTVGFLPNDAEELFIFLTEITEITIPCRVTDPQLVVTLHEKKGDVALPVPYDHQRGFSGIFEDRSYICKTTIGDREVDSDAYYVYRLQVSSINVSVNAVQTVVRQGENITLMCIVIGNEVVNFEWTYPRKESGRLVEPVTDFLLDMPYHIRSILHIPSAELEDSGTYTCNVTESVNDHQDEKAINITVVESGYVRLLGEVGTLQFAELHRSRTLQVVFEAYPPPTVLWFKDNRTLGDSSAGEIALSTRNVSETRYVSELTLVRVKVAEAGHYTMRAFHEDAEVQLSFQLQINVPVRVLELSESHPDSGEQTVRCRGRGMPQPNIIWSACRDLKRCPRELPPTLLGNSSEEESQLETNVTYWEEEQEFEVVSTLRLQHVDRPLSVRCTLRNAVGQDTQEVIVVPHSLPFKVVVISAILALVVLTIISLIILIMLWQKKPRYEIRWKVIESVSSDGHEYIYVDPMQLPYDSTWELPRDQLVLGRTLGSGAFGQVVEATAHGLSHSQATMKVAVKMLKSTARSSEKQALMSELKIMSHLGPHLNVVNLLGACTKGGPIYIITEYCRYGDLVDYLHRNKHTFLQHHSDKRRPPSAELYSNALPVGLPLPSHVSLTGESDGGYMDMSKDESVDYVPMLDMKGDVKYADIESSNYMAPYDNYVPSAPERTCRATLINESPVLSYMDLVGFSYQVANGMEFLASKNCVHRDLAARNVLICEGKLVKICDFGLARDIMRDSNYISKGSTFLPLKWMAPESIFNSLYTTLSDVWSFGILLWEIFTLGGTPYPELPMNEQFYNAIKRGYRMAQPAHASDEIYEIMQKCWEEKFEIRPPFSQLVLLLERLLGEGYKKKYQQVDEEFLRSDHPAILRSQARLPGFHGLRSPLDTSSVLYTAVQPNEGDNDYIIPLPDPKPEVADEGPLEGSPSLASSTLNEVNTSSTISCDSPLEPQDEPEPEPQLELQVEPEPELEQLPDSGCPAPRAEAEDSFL

T1 sequence (P06239 whole entry, species assumed, the tested form may be a part): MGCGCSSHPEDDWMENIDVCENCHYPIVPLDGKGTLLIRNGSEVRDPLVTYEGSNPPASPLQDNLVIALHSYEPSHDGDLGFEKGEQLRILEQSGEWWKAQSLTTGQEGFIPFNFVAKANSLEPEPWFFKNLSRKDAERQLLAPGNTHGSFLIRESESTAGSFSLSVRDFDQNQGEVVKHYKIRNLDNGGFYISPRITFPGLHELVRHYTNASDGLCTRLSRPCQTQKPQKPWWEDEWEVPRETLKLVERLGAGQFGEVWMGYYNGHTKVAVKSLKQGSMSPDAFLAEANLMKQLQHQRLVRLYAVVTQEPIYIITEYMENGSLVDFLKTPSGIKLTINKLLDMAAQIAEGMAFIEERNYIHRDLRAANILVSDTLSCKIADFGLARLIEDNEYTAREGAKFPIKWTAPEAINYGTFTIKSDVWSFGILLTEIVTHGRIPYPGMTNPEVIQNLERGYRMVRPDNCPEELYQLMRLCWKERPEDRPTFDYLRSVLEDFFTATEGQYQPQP

Compound | IC50 (Lck) | IC50 (Zap-70) | IC50 (Itk) | IC50 (EGFR) | IC50 (ErbB2) | IC50 (Kdr) | IC50 (c-Met) | IC50 (AKT) | IC50 (IGFR-1) | IC50 (PDGFRB)
COc1cc(Nc2ncnc(-c3cccnc3Nc3ccc(Oc4ccccc4)cc3)n2)cc(OC)c1OC [Compound 839] | > 8.61 µM | > 8.61 µM | > 8.61 µM | > 8.61 µM | 0.765 to 4.59 µM | > 8.61 µM | > 8.61 µM | > 8.61 µM | > 8.61 µM | 4.59 to 6.7 µM
NC(=O)Cc1cccc(Nc2ncnc(-n3c(NCc4ccccc4)nc4ccccc43)n2)c1 [Compound 967] | < 0.888 µM | > 9.99 µM | 7.77 to 9.99 µM | < 0.888 µM | 0.888 to 5.33 µM | < 0.888 µM | 5.33 to 7.77 µM | 7.77 to 9.99 µM | > 9.99 µM | < 0.888 µM
COC(=O)c1ccc(-c2cc(Nc3ncnc(NCCN4CCNC4=O)n3)[nH]n2)cc1 [Compound 820] | > 10.6 µM | > 10.6 µM | 8.27 to 10.6 µM | > 10.6 µM | > 10.6 µM | > 10.6 µM | > 10.6 µM | > 10.6 µM | 8.27 to 10.6 µM | > 10.6 µM
COc1ccc(Nc2ncnc(N(C)c3ccccc3)n2)cc1OC [Compound 797] | 1.19 to 7.11 µM | > 13.3 µM | > 13.3 µM | < 1.19 µM | 1.19 to 7.11 µM | 1.19 to 7.11 µM | 1.19 to 7.11 µM | > 13.3 µM | 7.11 to 10.4 µM | 7.11 to 10.4 µM
Clc1cc(Nc2ncnc(Nc3ccc4c(cnn4Cc4ccccc4)c3)n2)cc(Cl)c1Cl [Compound 872] | > 9.06 µM | > 9.06 µM | 0.805 to 4.83 µM | 0.805 to 4.83 µM | 0.805 to 4.83 µM | 0.805 to 4.83 µM | 0.805 to 4.83 µM | 0.805 to 4.83 µM | 0.805 to 4.83 µM | 0.805 to 4.83 µM
COc1cc(Nc2ncnc(-c3cccnc3NC(C)c3ccccc3)n2)cc(OC)c1OC (stereo not shown) [Compound 843] | < 0.872 µM | > 9.81 µM | > 9.81 µM | > 9.81 µM | 7.63 to 9.81 µM | < 0.872 µM | > 9.81 µM | > 9.81 µM | > 9.81 µM | < 0.872 µM
COC(=O)c1ccc(-c2cc(Nc3ncnc(NCc4ccco4)n3)[nH]n2)cc1 [Compound 805] | > 11.5 µM | > 11.5 µM | 6.13 to 8.94 µM | > 11.5 µM | > 11.5 µM | > 11.5 µM | 6.13 to 8.94 µM | > 11.5 µM | 6.13 to 8.94 µM | > 11.5 µM
COc1ccc(Nc2ncnc(Nc3ccc(F)c(F)c3)n2)cc1OC [Compound 794] | 1.11 to 6.68 µM | 9.74 to 12.5 µM | 9.74 to 12.5 µM | 1.11 to 6.68 µM | 1.11 to 6.68 µM | 6.68 to 9.74 µM | 9.74 to 12.5 µM | > 12.5 µM | 6.68 to 9.74 µM | 1.11 to 6.68 µM
c1ccc(Cn2ncc3cc(Nc4ncnc(Nc5ccc6ncsc6c5)n4)ccc32)cc1 [Compound 900] | 0.888 to 5.33 µM | 5.33 to 7.77 µM | 0.888 to 5.33 µM | < 0.888 µM | < 0.888 µM | < 0.888 µM | < 0.888 µM | < 0.888 µM | 0.888 to 5.33 µM | 0.888 to 5.33 µM
c1ccc(CNc2nc3ccccc3n2-c2ncnc(Nc3cccc(Cn4ccnn4)c3)n2)nc1 [Compound 962] | 0.841 to 5.05 µM | > 9.46 µM | > 9.46 µM | 5.05 to 7.36 µM | 7.36 to 9.46 µM | < 0.841 µM | > 9.46 µM | > 9.46 µM | 7.36 to 9.46 µM | < 0.841 µM
